Molecules are shown by their SMILES. “Also recorded” adds a separate entry of the source. Counter-ions that a name gives are not always drawn.

Data set [1] can be described thus: Solubility in aqueous media. The format is physicochemical.
The test system of the next data set is ARE (Nrf2 pathway). Put plainly: ARE-Gluc luciferase reporter (normalized to SV40-Vluc). The class given is cell-based, human. Particulars: for ARE activity: U87, CINN 100, FUM 50 μM, SULF 5 μM, FIG. 12C. From the text: DNA expression constructs: ARE reporter was designed and generated based on our previously published reporter for monitoring of the transcription factor Nuclear Factor Kappa B (NFkB). NFkB TRE elements were removed and replaced with four copies of the ARE enhancer sequence. This reporter consists of a CSCW lentivirus vector in which we have introduced two copies of the 1.2 kb chicken beta-globin (HS4) insulator elements, a TATA box acting as a minimal promoter upstream of the secreted Gaussia luciferase (Gluc). pcDNA3-HA2-Keap1 (Addgene plasmid #21556) and pcDNA3-HA2-Keap1 delta BTB (Addgene plasmid #21593) were a gift from Yue Xiong^2. pHAGE DN Cullin 3 (DN-CUL3) was a gift from Stephen Elledge (Addgene plasmid #41913). Constructs expressing constitutively active Gluc, Firefly luciferase (Fluc) and Vargula luciferase (Vluc) were previously describe. MISSION shRNA Bacterial Glycerol Stocks for Keap1 as well as a non-target shRNA were obtained from Sigma. Transfection of plasmid DNA was performed using Lipofectamine 2000 (Invitrogen) as per manufacturer's guidelines. Lentivirus packaging and titration was performed in 293T cells by the MGH viral vector core facility following standard protocols. Keap1 mutant C151S plasmid was kindly provided by Dr. Wooyoung Hur.
Luciferase assay: Coelenterazine (20 μM; Nanolight), The Gluc substrate was added to a 25 μL aliquot of conditioned medium and photon counts were measured using a luminometer. Similarly, the secreted Vluc activity was measured by adding its substrate vargulin (5 ng/mL; Nanolight). Cells stably expressing Gluc under the ARE enhancer sequence and Vluc under the constitutively active SV40 minimal promoter were used to determine the ARE reporter activity. The normalized Gluc/Vluc ratio was used as a marker for ARE activation.
For orientation: Reporter assays use an easily measured gene product as a stand-in for the process of interest.

The subject of another data set is U87 glioma cells. Briefly: Cell viability (CellTiter-Glo), U87. The format is cell-based, human. Particulars: for U87 cell viability: same doses as ARE test, FIG. 12D. Here is the method: Cell culture: MDA-MB-231 and U87 (U87-MG) cells were obtained from the American Type Culture Collection (ATCC). 293T human embryonic kidney fibroblasts were provided by Dr. Xandra Breakefield (Massachusetts General Hospital). All three cell lines were grown in Dulbecco's modified Eagle medium supplemented with 10% fetal bovine serum (Gemini Bio-products), 100 U penicillin, and 0.1 mg/mL streptomycin (Sigma). All cells were maintained at 37° C. in a humidified 5% CO2 incubator. GSCs were obtained from tumor tissues of GBM patients following surgical resection, under approval from the corresponding Institutional Review Board. These cells have been previously characterized (ref. 37-39) and were maintained in culture as neurospheres in Neurobasal medium (Gibco) supplemented with heparin (2 μg/mL; Sigma) and recombinant EGF (20 ng/mL) and bFGF-2 (10 ng/mL; Peprotech). Human Astrocytes were obtained from ScienCell and cultured in Astrocytes Medium (ScienCell)
(§1) Cell viability: Cells were plated in 96-well plates and treated with the corresponding compounds. Cell viability was measured by adding 25 μl/well of CellTiter-Glo (Promega) followed by 10 minutes incubation and transfer to a white 96-well plate. Bioluminescence was quantified using Synergy HTX multimode reader (Biotek).
A general note: ATP-based viability assays read luminescence as a measure of living cells.

A further data set concerns cancer cells. Briefly: Cancer cell death with OBT, JQ1, OBT-JQ1. The format is cell-based. Particulars: FIG. 23. Here is the method: as §1
Data set [2] concerns the target T1, BRD4 (Mus musculus, UniProt Q9ESU6).
T1 construct: CT2A glioma cells expressing mCherry fluorescent protein were implanted in the brain of mice; from tissue; host or cells: CT2A glioma tumour removed from mouse brain
Put plainly: BRD4 degradation in mouse glioma model in vivo (Western blotting). Also noted: species or system mice. Particulars: CT2A glioma; intratumoral, intravenous and intranasal routes; 24 hrs after last injection. Here is the method:
CT2A glioma cells expressing mCherry fluorescent protein were implanted in the brain of mice and 2 weeks later, once tumor reached a significant size, mice were injected with 0.7 mg/kg body weight of OBT-JQ1 using different injection routes (1) direct intratumoral injection (single injection), intravenously (once/day over 3 days) and intranasally (once/day over 3 days, an injection route that typically bypasses the blood-brain barrier). 24 hrs after the last injection, brains were removed and the tumor was lysed and analyzed by Western blotting for BRD4 and mCherry and actin loading controls.

The target in data set [3] is T2, BRD4 (Homo sapiens, UniProt O60885). Briefly: BRD4 degradation in breast cancer cells. The format is cell-based. Set-up: endogenous in cells. Particulars: FIG. 16. The protocol:
(§2) Immunoblotting and Immunoprecipitation analysis: Antibodies against PDI, GAPDH, HA-tag, Ubiquitin, Keap1 and beta-actin (Cell Signaling) as well as secondary Horseradish peroxidase (HRP) conjugated antibodies: sheep anti-mouse IgG-HRP and donkey antirabbit IgG-HRP (Amersham Pharmacia Biotech) were used in this study. For protein expression analysis, cells were lysed in RIPA buffer (150 mM NaCl, 50 mM TRIS, pH 8.0, 1% NP-40, 0.5% deoxycholate, 0.1% SDS) supplemented with 1× protease inhibitors cocktail (Roche). Proteins were quantified using a Bradford protein determination assay (Bio-Rad) followed by electrophoresis in 10% NuPAGE Bis-Tris gels (Life Technologies) and transfer to nitrocellulose membranes (Bio-Rad). Membranes were incubated overnight with antibodies in 1-5% non-fat milk powder in PBS/0.5% TWEEN. Proteins were detected with SuperSignal West Pico Chemiluminescent Substrate (Pierce). For immunoprecipitation assays, cells were lysed in RIPA buffer supplemented with protease inhibitors and 2 mM N-ethylmaleimide. Cell lysates were pre-cleared with protein A agarose beads (Cell Signaling) and incubated with anti-HA antibody with gentle rocking overnight at 4° C. followed by incubation with protein A agarose beads and subsequent washing and elution steps. Electrophoresis, transfer and immunoblot analysis was performed as described above.

The target in data set [4] is T2, BRD4. Put plainly: BRD4 degradation in patient-derived breast cancer cells. The class given is cell-based. Set-up: endogenous in cells; host or cells: patient-derived glioma cells; patient-derived breast cancer cells. Particulars: FIG. 18. The protocol: as §2
Data set [5] addresses T2, BRD4. Briefly: BRD4 degradation in patient-derived glioma cells. The format is cell-based. Also noted: endogenous in cells; host or cells: patient-derived glioma cells; patient-derived breast cancer cells. Particulars: FIG. 17. Here is the method: as §2
Data set [6] addresses T2, BRD4. Briefly: BRD4 degradation in glioma cells. The format is cell-based. Set-up: endogenous in cells. Particulars: FIG. 15. The protocol: as §2
Data set [7] concerns the target T2, BRD4. Put plainly: OBT-JQ1 PROTAC mechanism (proteasome block, Keap1/CUL3 knockdown). The class given is cell-based. Also noted: endogenous in cells. Here is the method:
as §2

Consider `COc1cc(O)c(O)cc1C(/C=C/c1ccccc1)SCCO` (stereo not drawn) [AF20a, (E)-4-(1-((2-hydroxyethyl)thio)-3-phenylallyl)-5-methoxybenzene-1,2-diol], for which the “solubility compared to OBT” value in data set [1] is “overcome the limited solubility of OBT”.

Take `COc1cc(O)c(O)cc1/C=C/C(SCCO)c1ccccc1` (stereo not drawn) [AF20b, (E)-4-(3-((2-hydroxyethyl)thio)-3-phenylprop-1-en-1-yl)-5-methoxybenzene-1,2-diol]: in data set [1], the “solubility compared to OBT” value was “overcome the limited solubility of OBT”.

On to `COC(=O)[C@]12CCC(C)(C)C[C@H]1[C@H]1C(=O)C=C3[C@@]4(C)C=C(C#N)C(=O)C(C)(C)[C@@H]4CC[C@@]3(C)[C@]1(C)CC2` [CDDO-Me, 2-cyano-3,12-dioxoolean-1,9-dien-28-oic acid-methyl ester], for which the ARE-Gluc reporter activity entry in the data set with ARE (Nrf2 pathway) (U87 and MDA-MB-231 cells, FIG. 12A) is “increased reporter activity”. Moreover, the cell viability entry in the data set on U87 glioma cells (higher doses, U87 cells, FIG. 12B) is “marked decrease”.

`COC1=CC(=O)C(OCC(=O)NCCCOCCOCCOCCCNC(=O)CC2N=C(c3ccc(Cl)cc3)c3c(sc(C)c3C)-n3c(C)nnc32)=C/C1=C/C=C/c1ccccc1` (stereo not drawn) [OBT-JQ1, 2-(4-(4-chlorophenyl)-2,3,9-trimethyl-6H-thieno[3,2-f][1,2,4]triazolo[4,3-a][1,4]diazepin-6-yl)-N-(1-(((Z)-4-methoxy-6-oxo-3-((E)-3-phenylallylidene)cyclohexa-1,4-dien-1-yl)oxy)-2-oxo-7,10,13-trioxa-3-azahexadecan-16-yl)acetamide]: the “induced cell death in presence of antioxidant NAC” value in the data set on cancer cells is given as “not protected”. In addition, the “BRD4 degradation in brain tumors” value on BRD4 [2] is reported as “induces BRD4 degradation; also recorded: efficient BRD4 degradation”. For the same compound, the BRD4 degradation entry on BRD4 [3], on BRD4 [4], on BRD4 [5] and at BRD4 [6] was “promotes targeted degradation of BRD4” each time. For the same compound, the “effect of OBT-JQ1 when proteasome is blocked” value at BRD4 [7] (FIG. 20) is given as “reverses the effect”. In addition, at BRD4 [7] (FIG. 21), the “PROTAC activity in Keap1 and CuL3 knockdown” value is “retains PROTAC activity”.

Regarding `O=CC=Cc1ccccc1` [cinnamaldehyde], the ARE activity result in the data set on ARE (Nrf2 pathway) was “increased ARE activity”. For the same compound, the U87 cell viability entry with U87 glioma cells is “moderate decrease”.

`CCOC(=O)/C=C/C(=O)OCC` [diethyl fumarate]: the ARE activity result in the data set on ARE (Nrf2 pathway) is “increased ARE activity”. For the same compound, the U87 cell viability result in the data set with U87 glioma cells was “moderate decrease”.

With `C[S+]([O-])CCCCN=C=S` (stereo not drawn) [sulforaphane], the ARE activity result in the data set on ARE (Nrf2 pathway) is “increased ARE activity”. In addition, the U87 cell viability result in the data set on U87 glioma cells is “moderate decrease”.

Values taken from US12521439B2, “Methods and materials for modulating Nrf2 pathway” (The General Hospital Corporation, priority 2019, dated 2026).
